The values below come from ChEMBL document CHEMBL1201862, “PubChem BioAssay data set” (2004).

Test systems include A549; NCI/ADR-RES; SR; TK-10; SF-268; HOP-62; SK-MEL-28; SN12C; SF-295; SK-OV-3; CCRF-CEM; MDA-N; EKVX; LOX IMVI; 786-0; MCF7; DU-145; SW-620; BT-549; MOLT-4.
Assay in all cases: DTP human tumour cell line panel, 48 h

SMILES strings stand for the structures.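 Following 48 hours of exposure in 96-well plates, responses at five concentrations were used to interpolate endpoints linearly. GI50 is the concentration that inhibits growth by half.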 Activity calls are given as the source filed them. No stated cut-off is given here; in the data, active = GI50 up to about 1.1 µM and inactive = higher. Where only a bound is given, the exact number is not on record here.

The term GI50 denotes the concentration giving 50% growth inhibition. For the molecule `N=C(CC(=O)Nc1ccccn1)c1ccccc1`, the GI50 with A549, with NCI/ADR-RES, with SR, with TK-10, in the assay on SF-268 and in the assay on HOP-62 was > 100 µM (inactive) in each case. For the same molecule, the GI50 in the assay on SK-MEL-28, with SN12C, with SF-295, in the assay on SK-OV-3, with CCRF-CEM and in the assay on MDA-N was > 100 µM (inactive) throughout. Further, the GI50 with EKVX, with LOX IMVI, in the assay with 786-0, in the assay with MCF7, in the assay with DU-145 and in the assay with SW-620 was > 100 µM (inactive) in each case. The GI50 in the assay with BT-549 and in the assay with MOLT-4 was > 100 µM (inactive) in each case.
As for `CC1(C)CC(=O)c2c(nc3c4c([nH]c(-c5ccc(Br)cc5)c24)CC(C)(C)C3)C1`, the GI50 in the assay with A549 is 29.6 µM (inactive); in the assay on NCI/ADR-RES, 33.7 µM (inactive); in the assay with SR, 8.65 µM (inactive); in the assay with TK-10 it was 61.1 µM (inactive); with SF-268, 55.6 µM (inactive); with HOP-62 it was > 100 µM (inactive). Further, the GI50 was 98.9 µM (inactive) in the assay on SK-MEL-28; 98.6 µM (inactive) in the assay on SN12C; 21.3 µM (inactive) in the assay with SF-295; > 100 µM (inactive) with SK-OV-3; 16.9 µM (inactive) in the assay with CCRF-CEM; 40.3 µM (inactive) in the assay on MDA-N. Moreover, the GI50 in the assay on EKVX is 50.2 µM (inactive); in the assay on LOX IMVI it was 30.2 µM (inactive); in the assay on 786-0, 22 µM (inactive); in the assay with MCF7, 33 µM (inactive); in the assay on DU-145 it was 65.3 µM (inactive); in the assay on SW-620, 49.3 µM (inactive). For the same molecule, the results for the GI50 in the assay on BT-549 and in the assay on MOLT-4 were 35.8 µM (inactive) and 13.8 µM (inactive), respectively.
For `COc1cccc2nc3c(C(=O)NCCN(C)C)cccc3cc12`, the GI50 in the assay on A549 was 0.473 µM (active); in the assay on NCI/ADR-RES, 2.71 µM (inactive); in the assay with SR it was 0.42 µM (active); with TK-10 it was 2.57 µM (inactive); in the assay on SF-268, 3.24 µM (inactive); with HOP-62 it was 1.19 µM (inactive). The GI50 in the assay with SK-MEL-28 is 2.63 µM (inactive); with SN12C it was 1.16 µM (inactive); with SF-295 it was 2.12 µM (inactive); in the assay on SK-OV-3, 1.43 µM (inactive); with CCRF-CEM, 0.518 µM (active); in the assay on MDA-N it was 2.18 µM (inactive). The GI50 in the assay on EKVX is 2.38 µM (inactive); with LOX IMVI, 0.771 µM (active); in the assay with 786-0, 1.16 µM (inactive); in the assay with MCF7 it was 1.12 µM (active); in the assay with DU-145, 5.74 µM (inactive); in the assay on SW-620 it was 1.09 µM (active). Moreover, the GI50 in the assay on BT-549 is 2.57 µM (inactive); in the assay with MOLT-4, 0.325 µM (active).
Consider `C=C1CC(COc2ccc3c(C)cc(=O)oc3c2)(c2ccccc2)OC1=O` (stereo not given), for which the GI50 is 11.5 µM (inactive) in the assay on A549; 2.28 µM (inactive) in the assay with NCI/ADR-RES; 1.7 µM (inactive) in the assay on SR; 1.62 µM (inactive) with TK-10; 5.33 µM (inactive) in the assay with SF-268; 13.1 µM (inactive) with HOP-62. For the same molecule, the GI50 was 2.41 µM (inactive) in the assay on SK-MEL-28; 5.27 µM (inactive) in the assay with SN12C; 6.85 µM (inactive) in the assay on SF-295; 4.17 µM (inactive) in the assay with SK-OV-3; 0.281 µM (active) with CCRF-CEM; 1.95 µM (inactive) in the assay with MDA-N. In addition, the GI50 was 9.29 µM (inactive) in the assay on EKVX; 1.26 µM (inactive) in the assay with LOX IMVI; 1.48 µM (inactive) in the assay with 786-0; 1.13 µM (inactive) with MCF7; 2.48 µM (inactive) in the assay on DU-145; 0.646 µM (active) in the assay on SW-620. Further, the GI50 is 1.74 µM (inactive) in the assay with BT-549 and 1.68 µM (inactive) in the assay with MOLT-4.
As to `COC(=O)C(Cc1ccccc1)NC(=O)c1ccc(CNC(=S)NCc2cccc(CNC(=S)NCc3ccccc3)c2)cc1` (stereo not given), the GI50 in the assay with A549 was > 34.5 µM (inactive); with NCI/ADR-RES, > 32.7 µM (inactive); in the assay with SR, > 34.6 µM (inactive); in the assay on TK-10 it was > 35.8 µM (inactive); with SF-268, 18.3 µM (inactive); in the assay on HOP-62, 28.9 µM (inactive). Besides, the GI50 in the assay with SK-MEL-28 is > 34 µM (inactive); in the assay on SN12C, > 31.8 µM (inactive); with SF-295 it was > 33.4 µM (inactive); with SK-OV-3, > 33.9 µM (inactive); in the assay on CCRF-CEM, > 34 µM (inactive); in the assay on MDA-N, > 32.5 µM (inactive). Besides, the GI50 with EKVX is > 32.2 µM (inactive); with LOX IMVI, > 35.6 µM (inactive); in the assay with 786-0, > 34.6 µM (inactive); in the assay with MCF7, > 32.8 µM (inactive); with DU-145, > 35.9 µM (inactive); with SW-620, > 32.9 µM (inactive). Further, the GI50 is > 33.9 µM (inactive) in the assay on BT-549 and > 34 µM (inactive) with MOLT-4.
As to `C[C@]12CCC(=O)C=C1CC[C@@H]1[C@@H]2CC[C@]2(C)C(=O)/C(=C/c3ccc([N+](=O)[O-])cc3)C[C@@H]12`, the GI50 in the assay on A549 was 8.36 µM (inactive); in the assay on NCI/ADR-RES it was 5.85 µM (inactive); with SR it was 2.9 µM (inactive); with TK-10 it was > 100 µM (inactive); with SF-268, 83.6 µM (inactive); in the assay on HOP-62, 49.8 µM (inactive). In addition, the GI50 with SK-MEL-28 is > 100 µM (inactive); with SN12C, 46.3 µM (inactive); with SF-295 it was 63.7 µM (inactive); with SK-OV-3, > 100 µM (inactive); with CCRF-CEM it was 8.97 µM (inactive); in the assay on MDA-N, 6.31 µM (inactive). The GI50 with EKVX was 17.1 µM (inactive); with LOX IMVI it was 37.9 µM (inactive); in the assay on 786-0, 18.6 µM (inactive); in the assay with MCF7, 0.621 µM (active); with DU-145 it was 0.824 µM (active); in the assay with SW-620 it was > 100 µM (inactive). Further, the GI50 was 6.3 µM (inactive) with BT-549 and 2.77 µM (inactive) in the assay on MOLT-4.
Consider `O=CC(O)C(O)C(O)C1CNC(=S)O1` (stereo not given), for which the GI50 in the assay on A549, in the assay on NCI/ADR-RES, with SR, with TK-10, in the assay with SF-268 and with HOP-62 was > 100 µM (inactive) throughout. Also, the GI50 in the assay on SK-MEL-28, in the assay with SN12C, in the assay on SF-295, in the assay on SK-OV-3, in the assay on CCRF-CEM and in the assay with MDA-N was > 100 µM (inactive) throughout. For the same molecule, the GI50 in the assay with EKVX, with LOX IMVI, in the assay on 786-0, in the assay on MCF7, in the assay on DU-145 and with SW-620 was > 100 µM (inactive) each time. For the same molecule, the GI50 in the assay with BT-549 and in the assay on MOLT-4 was > 100 µM (inactive) throughout.
